Results from the NIST ThermoML archive (doi:10.1021/je100707s).
Values joined by “and” are separate entries in the source; they are usually repeats but may differ in a detail not shown here. Equal values may be shown once.

Conditions: Gas, Bellows volumetry

F/C=C/C(F)(F)F [trans-1,3,3,3-tetrafluoropropene]
mass density
Conditions | 350 K | 360 K
806 kPa | – | 34.26 kg/m3
822 kPa | – | 35.02 kg/m3
838 kPa | – | 35.83 kg/m3
858 kPa | – | 36.81 kg/m3
872 kPa | – | 37.5 kg/m3
893 kPa | – | 38.54 kg/m3
914 kPa | – | 39.59 kg/m3
934 kPa | – | 40.62 kg/m3
957 kPa | – | 41.79 kg/m3
980 kPa | – | 42.97 kg/m3
996 kPa | – | 43.76 kg/m3
1013 kPa | – | 44.41 kg/m3
1032 kPa | – | 45.38 kg/m3
1050 kPa | 48.68 kg/m3 | –
1053 kPa | – | 46.47 kg/m3
1073 kPa | 49.96 kg/m3 | –
1076 kPa | – | 47.64 kg/m3
1081 kPa | 50.42 kg/m3 | –
1093 kPa | – | 48.62 kg/m3
1097 kPa | 51.34 kg/m3 | –
1118 kPa | 52.57 kg/m3 | –
1123 kPa | – | 50.21 kg/m3
1142 kPa | – | 51.25 kg/m3
1146 kPa | 54.28 kg/m3 | –
1164 kPa | – | 52.52 kg/m3
1166 kPa | 55.47 kg/m3 | –
1184 kPa | 56.54 kg/m3 | –
1190 kPa | – | 53.97 kg/m3
1212 kPa | 58.14 kg/m3 | –
1217 kPa | – | 55.45 kg/m3
1228 kPa | 59.18 kg/m3 | –
1246 kPa | – | 56.97 kg/m3
1249 kPa | – | 57.15 kg/m3
1253 kPa | 60.74 kg/m3 | –
1263 kPa | – | 57.94 kg/m3
1281 kPa | 62.46 kg/m3 | –
1285 kPa | – | 59.28 kg/m3
1299 kPa | 63.7 kg/m3 | –
1310 kPa | – | 60.71 kg/m3
1325 kPa | 65.31 kg/m3 | –
1335 kPa | – | 62.17 kg/m3
1352 kPa | 67.13 kg/m3 | –
1359 kPa | – | 63.66 kg/m3
1374 kPa | 68.68 kg/m3 | –
1376 kPa | 68.87 kg/m3 | –
1386 kPa | – | 65.23 kg/m3
1400 kPa | 70.45 kg/m3 | –
1403 kPa | 70.69 kg/m3 | –
1414 kPa | – | 66.98 kg/m3
1422 kPa | 72.01 kg/m3 | –
1434 kPa | 72.82 kg/m3 | –
1438 kPa | – | 68.45 kg/m3
1441 kPa | – | 68.77 kg/m3
1451 kPa | 74.02 kg/m3 | –
1460 kPa | 74.47 kg/m3 | –
1466 kPa | – | 70.29 kg/m3 and 70.3 kg/m3
1474 kPa | 75.65 kg/m3 | –
1493 kPa | – | 72.04 kg/m3
1499 kPa | 77.45 kg/m3 | –
1502 kPa | – | 72.6 kg/m3
1523 kPa | – | 73.94 kg/m3
1526 kPa | 79.54 kg/m3 | –
1535 kPa | – | 74.54 kg/m3
1545 kPa | – | 75.43 kg/m3
1552 kPa | 81.57 kg/m3 | –
1580 kPa | 83.73 kg/m3 | 77.76 kg/m3
1607 kPa | – | 79.57 kg/m3
1611 kPa | 86.28 kg/m3 | –
1634 kPa | – | 81.53 kg/m3
1645 kPa | 88.62 kg/m3 | –
1665 kPa | – | 83.71 kg/m3
1667 kPa | 90.44 kg/m3 | –
1692 kPa | 92.58 kg/m3 | –
1695 kPa | – | 85.89 kg/m3
1722 kPa | 95.16 kg/m3 | –
1725 kPa | – | 87.95 kg/m3
1737 kPa | – | 88.54 kg/m3
1748 kPa | 97.5 kg/m3 | –
1760 kPa | – | 90.28 kg/m3
1773 kPa | 99.83 kg/m3 | –
1787 kPa | – | 92.36 kg/m3
1798 kPa | 102.24 kg/m3 | –
1815 kPa | – | 94.55 kg/m3
1822 kPa | 104.65 kg/m3 | –
1850 kPa | 107.61 kg/m3 | 97.28 kg/m3
1869 kPa | 109.92 kg/m3 | –
1886 kPa | – | 100.24 kg/m3
1926 kPa | – | 103.58 kg/m3
1936 kPa | – | 104.54 kg/m3
1964 kPa | – | 107.1 kg/m3
1999 kPa | – | 110.25 kg/m3
2157 kPa | – | 125.99 kg/m3
2180 kPa | – | 128.5 kg/m3
2212 kPa | – | 132.17 kg/m3
2224 kPa | – | 133.7 kg/m3
2247 kPa | – | 136.47 kg/m3
2279 kPa | – | 140.52 kg/m3
2287 kPa | – | 141.76 kg/m3
2300 kPa | – | 143.52 kg/m3
